{"source": "patent US20200207989A1", "about": "“FLUORESCENT PROBE FOR ALDH3A1 DETECTION” (The University of Tokyo, priority 2016, published 2020)", "key": {"[1]": {"target": "T1, ALDH1A1 (Homo sapiens, UniProt P00352)", "T1 construct": "purchased", "T1 sequence (P00352 1-501)": "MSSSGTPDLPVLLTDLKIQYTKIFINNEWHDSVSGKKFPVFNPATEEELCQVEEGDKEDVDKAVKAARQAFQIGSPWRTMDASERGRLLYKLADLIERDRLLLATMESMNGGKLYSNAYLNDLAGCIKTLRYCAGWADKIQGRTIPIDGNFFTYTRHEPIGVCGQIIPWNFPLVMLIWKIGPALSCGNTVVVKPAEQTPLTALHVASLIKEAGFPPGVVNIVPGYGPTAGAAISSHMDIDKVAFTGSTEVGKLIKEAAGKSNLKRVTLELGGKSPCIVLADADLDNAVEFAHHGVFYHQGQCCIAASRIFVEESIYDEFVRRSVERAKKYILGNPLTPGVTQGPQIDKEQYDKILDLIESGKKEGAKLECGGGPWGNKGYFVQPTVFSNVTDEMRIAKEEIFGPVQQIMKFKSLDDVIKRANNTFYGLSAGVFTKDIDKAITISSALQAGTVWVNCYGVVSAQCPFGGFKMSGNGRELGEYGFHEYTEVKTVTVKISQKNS", "test": "Kinetic characteristics (Michaelis-Menten Km, Kcat) with ALDH1A1", "format": "biochemical", "details": "five minutes at 37° C., Tris buffer pH 7.5", "protocol": "(§1) Human recombinant ALDH1A1/1A3/3A1 was purchased, and 100 mM of KCL, 2 mM of DTT, 1 mM of NAD(P), 10-100 nM of each ALDH, and 10-80 μM of each compound were mixed in Tris buffer (100 mM, pH 7.5), reacted for 30 minutes at 37° C., an equal amount of acetonitrile added, and the reaction stopped. The reaction solution was analyzed by UPLC/MS/MS (Waters). The UPCL chromatogram was carried out over five minutes at a flow rate of 800 μL/min by a linear gradient from 5% acetonitrile 0.01 M ammonium formate/water to 95% acetonitrile 0.01 M ammonium formate/water. An aldehyde-form and carboxylic acid-form probe were detected by the absorbance at a wavelength of 504 nm, and m/z of the MS spectrum at each peak was confirmed to agree with the expected m/z.\nFor the reaction, 100 mM of KCL, 2 mM of DTT, 1 mM of NAD(P), and five to six concentrations within the range of 10-100 nM of each ALDH and 0.1-80 μM of each probe were selected, mixed in Tris buffer (100 mM, pH 7.5), and reacted for five minutes at 37° C.; an equal amount of acetonitrile was added, and the reaction was stopped. Detection of the aldehyde-form/carboxylic acid-form probes was carried out using the same method as described above by UPLC/MS/MS. Km and Kcat were calculated by fitting the reaction rate at each probe concentration obtained to the Michaelis-Menten equation. A Kaleida Graph ver. 4.1 (Hulinks, Inc.) was used in fitting."}, "[2]": {"target": "T2, ALDH1A3 (Homo sapiens, UniProt P47895)", "T2 construct": "purchased", "T2 sequence (P47895 1-512)": "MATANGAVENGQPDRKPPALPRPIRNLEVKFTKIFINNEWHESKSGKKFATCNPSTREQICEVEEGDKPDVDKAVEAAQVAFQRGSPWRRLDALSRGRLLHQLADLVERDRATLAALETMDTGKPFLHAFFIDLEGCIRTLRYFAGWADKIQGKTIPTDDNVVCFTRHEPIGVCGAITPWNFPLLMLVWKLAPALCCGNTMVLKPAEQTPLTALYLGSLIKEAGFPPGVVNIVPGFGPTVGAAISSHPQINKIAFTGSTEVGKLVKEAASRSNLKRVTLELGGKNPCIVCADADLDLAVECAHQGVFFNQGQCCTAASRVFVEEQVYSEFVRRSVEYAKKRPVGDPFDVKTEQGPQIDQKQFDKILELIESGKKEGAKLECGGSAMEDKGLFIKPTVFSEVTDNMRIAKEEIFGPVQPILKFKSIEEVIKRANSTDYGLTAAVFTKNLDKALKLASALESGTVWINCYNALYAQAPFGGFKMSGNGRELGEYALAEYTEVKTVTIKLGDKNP", "test": "Reactivity of probes to recombinant ALDH1A3 (UPLC/MS/MS)", "format": "biochemical", "details": "10-100 nM ALDH, 10-80 μM compound, Tris buffer pH 7.5, 30 minutes at 37° C., ◯/X not defined by a legend", "protocol": "as §1, with “formate/water.” for “formate/water. An aldehyde-form and carboxylic acid-form probe were detected by the absorbance at a wavelength of 504 nm, and m/z of the MS spectrum at each peak was confirmed to agree with the expected m/z.”"}, "[3]": {"system": "OE21 cell line", "test": "Cell imaging of OE21 cells against CB7 negative control", "format": "cell-based", "details": "probe 5: 40 μM, 90 minutes at 37° C., CB7 10 μM control", "protocol": "40 μM of probe 5 was added to culture medium (RPMI 1640, 10% FBS, 15 mM HEPES, phenol red-free). After culturing for 90 minutes at 37° C., the cells were washed using a chilled medium and examined under a confocal microscope. A sample with a specific ALDH3A1 inhibitor (1-[(4-fluorophenyl)sulfonyl]-2-methyl-1H-benzimidazole, CB7, 10 μM) added served as a negative control. Excitation was provided by a 488 nm laser, and observation was carried out at wavelengths of […] in detection."}, "[4]": {"target": "T1, ALDH1A1", "test": "Reactivity of probes to recombinant ALDH1A1 (UPLC/MS/MS detection of aldehyde and carboxylic acid forms)", "format": "biochemical", "details": "10-100 nM ALDH, 10-80 μM compound, Tris buffer pH 7.5, 30 minutes at 37° C., ◯/X not defined by a legend", "protocol": "as §1"}}}
{"substance": "N-(4-formylbenzyl)-3-(1,3-dimethyl-4,4-difluoro-4-bora-3a,4a-diaza-s-indacen-5-yl)-propionamide [Probe 1]", "values": [{"measurement": "Kcat ALDH1A1", "setting": "[1]", "result": "1.36 ± 0.045", "unit": "s⁻¹"}, {"measurement": "Km", "setting": "[1]", "result": "< 0.2", "unit": "µM"}, {"measurement": "Reactivity to ALDH1A3", "setting": "[2]", "result": "◯"}, {"measurement": "Reactivity to ALDH1A3", "setting": "[2]; listed as Compound 1", "result": "reacted with all three of the isoforms tested"}, {"measurement": "Brightness of cells in imaging compared to negative control (CB7)", "setting": "[3]", "result": "no evident difference in brightness could be found in comparison to the negative control"}, {"measurement": "Reactivity to ALDH1A1", "setting": "[4]", "result": "◯"}, {"measurement": "Reactivity to ALDH1A1", "setting": "[4]; listed as Compound 1", "result": "reacted with all three of the isoforms tested"}]}
